The text below walks through data of US20110076349A1 (priority 2008, published 2011).

Where a name gives a salt, the structure may show the parent alone.

Holding throughout (format): in vivo, mouse
Assay [1] concerns male C57BL/6N mice. Nature of the assay: Forced swimming treatment and amount of spontaneous activity in dark period (fatigue-relieving effects). To be noted: dark period after 30 minutes of forced swimming; compared with FS-Vehicle group. As to the method: An experiment for determining the fatigue-improving effects (action) was conducted using a forced swimming test for mice and a system for measuring the amount of spontaneous activity. Sixty eight (68) male C57BL/6N mice that had experienced no experiment were bred in an animal room with a constant temperature and humidity for which a 12-12-hour light-dark cycle had been set. Mice were sufficiently acclimatized to breeding environment and then used as subject animals. At the start of the experiment, mice were 10-12-week old and the average body weight was 22.8 g (SD =1.28). The subject animals were divided into seven groups so that the groups were almost the same in terms of average body weights and average ages in weeks. These groups were designated an FS-Akino group (n=11), an FS-Vehicle group (n=10), a noFS-Vehicle group (n=9), an FS-Dia group (n=9), an FS-Caf group (n=9), an FS-Imi group (n=11), and an FS-SSRI group (n=9).
A cylindrical water tank (with the bottom surface having a diameter of 18 cm and a height of 29 cm) placed in an experimental chamber capable of achieving sound proof and light shielding was filled with water at 24±1° C. to a depth of 15 cm. At 7 hours before the start of a dark period, subject mice under FS conditions were subjected to 30 minutes of forced swimming treatment in the tank. Specifically, subject mice were forced to swim under conditions in which they could not escape. Subject mice of the control noFS-Cnt group were left to stand within the same type of empty water tank for 30 minutes.
After 30 minutes of forced swimming treatment, Akino (the water soluble ingredient extracted from Hemerocallis fulva var. sempervirens), diazepam (Dia, 2.5 mg/kg), caffeine (Caf, 15 mg/kg), imipramine (Imi, 30 mg/kg), SSRI (fluvoxamine maleate, 25 mg/kg), or Vehicle (distilled water), which is an ingredient, corresponding to the latter half of each group name, were specifically administered to each subject mouse. Akino and distilled water were orally administered using a stomach tube, and diazepam, caffeine, imipramine, and SSRI were injected intraperitoneally. The dose was always 10 ml of solution per kg mouse body weight.
After administration of these drugs, subject mice were placed in acrylic cages (20 cm long×30 cm wide×12 cm high). The amount of spontaneous activity (in the dark period that began at 6 hours after administration) was continuously measured for 12 hours. The breeding cages used herein were sterilized in advance. All floor mats, feeding stuffs, water supply bottles, and the like used herein were newly prepared. The amount of spontaneous activity was measured using a system for measuring the amount of exercise of experimental animals (Muromachi Kikai Co., Ltd.) using Super Mex Sensor and dedicated software (CompACT AMS ver.3).

For assay [2], the system named is mice. As to the kind of experiment: Deep body temperature measurement, comparison with other test substances (FIG. 18). To be noted: same concentration for all test substances.
For assay [3], the system named is mice. As to the kind of experiment: Comparison of sedative effects with other test substances (FIG. 3). To be noted: same dose, 0.8 g/kg, p.o.
Assay [4] concerns male C57BL/6N mice. As to the kind of experiment: Open space swimming treatment and water maze learning (antidepressant-like effects). The settings on record: phase 2 after open space swimming; 25 mg/kg intraperitoneal. From the text:
Fifty (50) male C57BL/6N mice that had experienced no experiment were bred in an animal room with a constant temperature and humidity for which a 12-12-hour light-dark cycle had been set. Mice were sufficiently acclimatized to breeding environment and then used as subject animals. At the start of the experiment, mice were 10-14-week old and the average body weight was 23.7 g (SD=3.21). The subject animals were divided into four groups each consisting of 12 or 13 mice so that the groups were almost the same average body weights and average ages in weeks. These groups were designated an OS-Akino group, an OS-SSRI group, an OS-Vehicle group, and a noOS-Vehicle group, respectively. An experimental apparatus was a circular pool coated white having a diameter of 110 cm and a height of 40 cm. The pool was filled with water to the depth of 22 cm. Titanium oxide was added to make water cloudy. The water temperature was maintained at 24° C.±1 ° C.
The experiment was composed of two phases. In phase 1, subject mice of the 3 groups under OS conditions were subjected to open space swimming treatment (OS) for 5 straight days. Specifically, subject mice were released into the pool from a wall once a day and then caused to swim for 5 minutes. […] Specifically, 5 times a day, mice were released into the pool and then the time for the mice to reach the escape platform (escape latency) was measured. […]

With `Cn1c(=O)c2c(ncn2C)n(C)c1=O` [Caf, caffeine], in the assay on male C57BL/6N mice [1], the “amount of spontaneous activity” value is “equivalent to that of the FS-Vehicle group”.
As to `CN1C(=O)CN=C(c2ccccc2)c2cc(Cl)ccc21` [Dia, diazepam], in the assay on male C57BL/6N mice [1], the “amount of spontaneous activity” value was “higher than that of the FS-Vehicle group”.
`NCCCC(=O)O` [GABA, γ-aminobutyric acid]: the “rectal temperature (deep body temperature)” value (“rectal temperature” for short) in the assay on mice [2] is given as “lowered the deep body temperature, but the rate of decrease was lower”. Also, the sedative effects result in the assay with mice [3] is reported as “sedative effects”.
For `CN(C)CCCN1c2ccccc2CCc2ccccc21` [Imi, imipramine], in the assay with male C57BL/6N mice [1], the “amount of spontaneous activity” value is reported as “equivalent to that of the FS-Vehicle group”.
Regarding `COCCCC/C(=N\OCCN)c1ccc(C(F)(F)F)cc1` [SSRI, fluvoxamine maleate], the “amount of spontaneous activity” value in the assay on male C57BL/6N mice [1] was “equivalent to that of the FS-Vehicle group”. Further, in the assay with male C57BL/6N mice [4], the water maze learning result is “good learning”.
As for `NCC(=O)O` [glycine], the “rectal temperature” value in the assay on mice [2] is “lowered the deep body temperature, but the rate of decrease was lower”. Also, the sedative effects entry in the assay on mice [3] is “sedative effects”.
Turning to `CCNC(=O)CC[C@H](N)C(=O)O` [teanin], in the assay with mice [2], the “rectal temperature” value is “lowered the deep body temperature, but the rate of decrease was lower”. Further, the sedative effects entry in the assay on mice [3] was “sedative effects”.
